Reference: patent US4801613A, “Bradykinin antagonist peptides” (Nova Technology Limited Partnership, priority 1987, dated 1989)
Where two headings read alike, the source gives them in different places. Non-standard residues stand in square brackets, D forms with d. Residues, ends and D or L forms follow the SMILES beside them. No end group written: not given here. Hyp = O=C(O)[C@@H]1C[C@@H](O)CN1; 2Thi = N[C@@H](Cc1cccs1)C(=O)O; d2Thi = N[C@H](Cc1cccs1)C(=O)O

How the values were obtained:
Type in all cases: cell-based
[1] = tested on: isolated rat uterus
Experimental: (§1) The bradykinin antagonists were assayed on isolated rat uterus in natural or induced estrus and on guinea pig ileum, according to the commonly accepted assay methods for bradykinin and related kinins as described by Trautschold (Handbook of Expt. Pharmacol. Vol. 25, Springer Verlag, pp 53-55, 1970) for inhibition of the myotropic activity of bradykinin. The inhibition potencies, as determined according to the commonly accepted manner described by Schild for antagonists of biologically active compounds (Br. J. Pharmacol. 2:189, 1947), are determined on isolated rat uterus (RUT) and isolated guinea pig ileum (GPI). In the assays, a dose-response curve is determined for the reference substance bradykinin. The dose of bradykinin which produced a half maximal contraction of tissue is the ED50 dose. An amount of bradykinin equivalent to twice the ED50 dose is administered to the tissue 30 seconds after the start of incubation of the tissue with a dose of antagonist. Doses of antagonist are increased in this protocol until pre-incubation with a dose of antagonist reduces the contraction in response to the double ED50 dose of bradykinin to response of a single ED50 dose of bradykinin. The pA2 value represents the negative logarithm of the molar concentration of antagonist necessary to reduce the response of a double ED50 dose of bradykinin to that of an ED50 dose. One unit of pA2 value represents an order of magnitude change in potency. For comparison, the negative log of the dose of BK, the dose which causes half maximal contraction of the tissues, is commonly known as the pD2 value. The pD2 value for bradykinin is 7.9 on the rat uterus and 7.4 on the guinea pig ileum.

[2] = tested on: guinea pig ileum
Experimental: as §1
(§2) In each case, as shown, the BK-related antagonists inhibited contractions produced by BK-related agonists, but had no effect on the non-kinin myotropic peptide substances. The inhibition potencies are listed as pA2 values as described above.

[3] = tested on: isolated guinea pig ileum
Experimental: as §1, §2

[4] = isolated rat uterus, vs double ED50 dose of bradykinin, Schild
[5] = isolated guinea pig ileum, vs double ED50 dose of bradykinin, Schild

For `N=C(N)NCCC[C@@H](N)C(=O)N[C@@H](CCCNC(=N)N)C(=O)N1CCC[C@H]1C(=O)N1CCC[C@@H]1C(=O)NCC(=O)N[C@@H](Cc1cccs1)C(=O)N[C@@H](CO)C(=O)N[C@H](Cc1ccccc1)C(=O)N[C@@H](Cc1cccs1)C(=O)N[C@@H](CCCNC(=N)N)C(=O)O` [Example 16, DArg-Arg-Pro-DPro-Gly-Thi-Ser-DPhe-Thi-Arg] (H-[dR]RP[dP]G[2Thi]S[dF][2Thi]R-OH), the pA2/RUT [1] was 5.2.
For `N=C(N)NCCC[C@@H](N)C(=O)N[C@@H](CCCNC(=N)N)C(=O)N1CCC[C@H]1C(=O)N1CCC[C@@H]1C(=O)NCC(=O)N[C@@H](Cc1ccccc1)C(=O)N[C@@H](CO)C(=O)N[C@H](Cc1ccccc1)C(=O)N[C@@H](Cc1ccccc1)C(=O)N[C@@H](CCCNC(=N)N)C(=O)O` [Example 11, DArg-Arg-Pro-DPro-Gly-Phe-Ser-DPhe-Phe-Arg], the “RUT pA2” value [1] was 4.6 and the pA2/RUT [1] was 4.0.
In the case of `N=C(N)NCCC[C@@H](N)C(=O)N[C@@H](CCCNC(=N)N)C(=O)N1CCC[C@H]1C(=O)N1CCC[C@H]1C(=O)NCC(=O)N[C@@H](Cc1cccs1)C(=O)N[C@@H](CO)C(=O)N[C@H](Cc1ccccc1)C(=O)N[C@@H](Cc1cccs1)C(=O)N[C@@H](CCCNC(=N)N)C(=O)O` [Example 15, DArg-Arg-Pro-Pro-Gly-Thi-Ser-DPhe-Thi-Arg] (H-[dR]RPPG[2Thi]S[dF][2Thi]R-OH), the “RUT pA2” value [1] is reported as 5.2, the pA2/RUT [1] is reported as 5.5 and the “GUINEA PIG ILEUM KAL (pA2)” value [2] is reported as 6.7. For the same molecule, the “GUINEA PIG ILEUM MK--BK (pA2)” value [2] was 6.4 and the “GUINEA PIG ILEUM BK (pA2)” value [3] was 6.1.
`N=C(N)NCCC[C@@H](N)C(=O)N[C@@H](CCCNC(=N)N)C(=O)N1CCC[C@H]1C(=O)N1C[C@H](O)C[C@H]1C(=O)NCC(=O)N[C@@H](Cc1cccs1)C(=O)N[C@@H](CO)C(=O)N[C@H](Cc1ccccc1)C(=O)N[C@@H](Cc1cccs1)C(=O)N[C@@H](CCCNC(=N)N)C(=O)O` [Example 21, DArg-Arg-Pro-Hyp-Gly-Thi-Ser-DPhe-Thi-Arg] (H-[dR]RP[Hyp]G[2Thi]S[dF][2Thi]R-OH) was tested, and the pA2/RUT [1] was 7.2.
With `N=C(N)NCCC[C@@H](N)C(=O)N[C@@H](CCCNC(=N)N)C(=O)N1CCC[C@H]1C(=O)N1CCC[C@H]1C(=O)NCC(=O)N[C@@H](Cc1ccccc1)C(=O)N[C@@H](CO)C(=O)N[C@H](Cc1ccccc1)C(=O)N[C@@H](Cc1ccccc1)C(=O)N[C@@H](CCCNC(=N)N)C(=O)O` [Example 10, DArg-Arg-Pro-Pro-Gly-Phe-Ser-DPhe-Phe-Arg] the “RUT AG = agonist potency relative to BK = 100” value [1] was 0.1%, the “GUINEA PIG ILEUM KAL (pA2)” value ([2]; agonist kallidin (Lys-BK)) was 6.0 and the “GUINEA PIG ILEUM MK--BK (pA2)” value ([2]; agonist methionyl-lysyl-BK) was 6.3. For the same molecule, the “GPI pA2” value [3] was 5.0 and the “GUINEA PIG ILEUM BK (pA2)” value [3] was 5.6.
“Arg-Pro-Pro-Gly-Phe-DPhe-CDF-Phe-Arg [Example 5]” was tested, and the pA2/RUT [1, 4] was 4.9 and the pA2/GPI [3, 5] was 5.8.
“Arg-Pro-Pro-Gly-Thi-Ser-DPal-Thi-Arg [Example 8]” showed a pA2/RUT [1, 4] of 4.2.
`N=C(N)NCCC[C@H](NC(=O)[C@H](Cc1ccccc1)NC(=O)[C@@H](Cc1cccs1)NC(=O)[C@H](CO)NC(=O)[C@H](Cc1ccccc1)NC(=O)CNC(=O)[C@@H]1CCCN1C(=O)[C@@H]1CCCN1C(=O)[C@@H](N)CCCNC(=N)N)C(=O)O` [Example 2, Arg-Pro-Pro-Gly-Phe-Ser-DThi-Phe-Arg] (H-RPPGFS[d2Thi]FR-OH) showed a pA2/GPI [3] of 4.6.
`N=C(N)NCCC[C@H](NC(=O)[C@H](Cc1ccccc1)NC(=O)[C@@H](Cc1ccccc1)NC(=O)[C@H](CO)NC(=O)[C@H](Cc1ccccc1)NC(=O)CNC(=O)[C@@H]1CCCN1C(=O)[C@@H]1C[C@@H](O)CN1C(=O)[C@H](CCCNC(=N)N)NC(=O)[C@H](CCCCN)NC(=O)[C@@H](N)CCCCN)C(=O)O` [Example 72, Lys-Lys-Arg-Hyp-Pro-Gly-Phe-Ser-DPhe-Phe-Arg] (H-KKR[Hyp]PGFS[dF]FR-OH) showed a pA2/RUT [1] of 5.6.
For `N=C(N)NCCC[C@@H](N)C(=O)N[C@@H](CCCNC(=N)N)C(=O)N1C[C@H](O)C[C@H]1C(=O)N1C[C@H](O)C[C@H]1C(=O)NCC(=O)N[C@@H](Cc1cccs1)C(=O)N[C@@H](CO)C(=O)N[C@H](Cc1ccccc1)C(=O)N[C@@H](Cc1cccs1)C(=O)N[C@@H](CCCNC(=N)N)C(=O)O` [Example 65, DArg-Arg-Hyp-Hyp-Gly-Thi-Ser-DPhe-Thi-Arg] (H-[dR]R[Hyp][Hyp]G[2Thi]S[dF][2Thi]R-OH), the pA2/RUT [1] was 7.1.
With `N=C(N)NCCC[C@H](NC(=O)[C@H](Cc1cccs1)NC(=O)[C@@H](Cc1ccccc1)NC(=O)[C@H](CO)NC(=O)[C@H](Cc1cccs1)NC(=O)CNC(=O)[C@@H]1CCCN1C(=O)[C@@H]1CCCN1C(=O)[C@H](CCCNC(=N)N)NC(=O)[C@H](CCCCN)NC(=O)[C@@H](N)CCCCN)C(=O)O` [Example 14, Lys-Lys-Arg-Pro-Pro-Gly-Thi-Ser-DPhe-Thi-Arg] (H-KKRPPG[2Thi]S[dF][2Thi]R-OH) the pA2/RUT [1] was 6.0 and the pA2/GPI [3] was 5.3.
`N=C(N)NCCC[C@H](NC(=O)[C@H](Cc1cccs1)NC(=O)[C@@H](Cc1ccccc1)NC(=O)[C@H](CO)NC(=O)[C@H](Cc1cccs1)NC(=O)CNC(=O)[C@@H]1C[C@@H](O)CN1C(=O)[C@@H]1C[C@@H](O)CN1C(=O)[C@@H](N)CCCNC(=N)N)C(=O)O` [Example 22, Arg-Hyp-Hyp-Gly-Thi-Ser-DPhe-Thi-Arg] (H-R[Hyp][Hyp]G[2Thi]S[dF][2Thi]R-OH) showed a pA2/RUT [1] of 6.7.
`N=C(N)NCCC[C@H](NC(=O)[C@H](Cc1ccccc1)NC(=O)[C@@H](Cc1ccccc1)NC(=O)[C@H](CO)NC(=O)[C@H](Cc1ccccc1)NC(=O)CNC(=O)[C@@H]1CCCN1C(=O)[C@@H]1CCCN1C(=O)[C@H](CCCNC(=N)N)NC(=O)[C@H](CCCCN)NC(=O)[C@@H](N)CCCCN)C(=O)O` [Example 13, Lys-Lys-Arg-Pro-Pro-Gly-Phe-Ser-DPhe-Phe-Arg] (H-KKRPPGFS[dF]FR-OH) showed a pA2/GPI [3] of 5.1.
With “KKR[Hyp]G[2Thi]S[dF][2Thi]R [Example 19]” the pA2/RUT [1, 4] was 5.8.
With “Arg-Pro-Pro-Gly-Phe-Ser-DPal-Phe-Arg [Example 3]” the pA2/RUT [1, 4] was 5.0 and the pA2/GPI [3, 5] was 4.8.
In the case of `N=C(N)NCCC[C@@H](N)C(=O)N[C@@H](CCCNC(=N)N)C(=O)N1C[C@H](O)C[C@H]1C(=O)N1CCC[C@H]1C(=O)NCC(=O)N[C@@H](Cc1cccs1)C(=O)N[C@@H](CO)C(=O)N[C@H](Cc1ccccc1)C(=O)N[C@@H](Cc1cccs1)C(=O)N[C@@H](CCCNC(=N)N)C(=O)O` [Example 64, DArg-Arg-Hyp-Pro-Gly-Thi-Ser-DPhe-Thi-Arg] (H-[dR]R[Hyp]PG[2Thi]S[dF][2Thi]R-OH), the pA2/RUT [1] is reported as 5.7.
`N=C(N)NCCC[C@H](NC(=O)[C@H](Cc1cccs1)NC(=O)[C@@H](Cc1ccccc1)NC(=O)[C@H](CO)NC(=O)[C@H](Cc1cccs1)NC(=O)CNC(=O)[C@@H]1C[C@@H](O)CN1C(=O)[C@@H]1CCCN1C(=O)[C@@H](N)CCCNC(=N)N)C(=O)O` [Example 20, Arg-Pro-Hyp-Gly-Thi-Ser-DPhe-Thi-Arg] (H-RP[Hyp]G[2Thi]S[dF][2Thi]R-OH) gave a pA2/RUT [1] of 7.0 and a pA2/GPI [3] of 4.7.
With `N=C(N)NCCC[C@H](NC(=O)[C@H](Cc1cccs1)NC(=O)[C@@H](Cc1ccccc1)NC(=O)[C@H](CO)NC(=O)[C@H](Cc1cccs1)NC(=O)CNC(=O)[C@@H]1C[C@@H](O)CN1C(=O)[C@@H]1CCCN1C(=O)[C@H](CCCNC(=N)N)NC(=O)[C@H](CCCCN)NC(=O)[C@@H](N)CCCCN)C(=O)O` [Example 77, Lys-Lys-Arg-Pro-Hyp-Gly-Thi-Ser-DPhe-Thi-Arg] (H-KKRP[Hyp]G[2Thi]S[dF][2Thi]R-OH) the pA2/RUT [1] was 6.7.
`N=C(N)NCCC[C@H](NC(=O)[C@H](Cc1cccs1)NC(=O)[C@@H](Cc1cccs1)NC(=O)[C@H](CO)NC(=O)[C@H](Cc1cccs1)NC(=O)CNC(=O)[C@@H]1CCCN1C(=O)[C@@H]1CCCN1C(=O)[C@@H](N)CCCNC(=N)N)C(=O)O` [Example 7, Arg-Pro-Pro-Gly-Thi-Ser-DThi-Thi-Arg] (H-RPPG[2Thi]S[d2Thi][2Thi]R-OH) showed a pA2/RUT [1] of 4.2 and a pA2/GPI [3] of 5.8.
With “Arg-Hyp-Hyp-Gly-Thi-DPhe-CDF-Thi-Arg [Example 23]” the pA2/RUT [1, 4] was 6.5.
Molecule `N=C(N)NCCC[C@H](NC(=O)[C@H](Cc1cccs1)NC(=O)[C@@H](Cc1ccccc1)NC(=O)[C@H](CO)NC(=O)[C@H](Cc1cccs1)NC(=O)CNC(=O)[C@@H]1CCCN1C(=O)[C@@H]1C[C@@H](O)CN1C(=O)[C@@H](N)CCCNC(=N)N)C(=O)O` [Example 18, Arg-Hyp-Pro-Gly-Thi-Ser-DPhe-Thi-Arg] (H-R[Hyp]PG[2Thi]S[dF][2Thi]R-OH) has a pA2/RUT [1] of 5.6.
Molecule `N=C(N)NCCC[C@H](NC(=O)[C@H](Cc1ccccc1)NC(=O)[C@@H](Cc1ccccc1)NC(=O)[C@@H](Cc1ccccc1)NC(=O)[C@H](Cc1ccccc1)NC(=O)CNC(=O)[C@@H]1CCCN1C(=O)[C@@H]1CCCN1C(=O)[C@@H](N)CCCNC(=N)N)C(=O)O` [Example 4, Arg-Pro-Pro-Gly-Phe-DPhe-DPhe-Phe-Arg] (H-RPPGF[dF][dF]FR-OH) has a pA2/GPI [3] of 5.2.
